Experimental data reported in a melting point compilation (Tetko et al.).

melting point [°C] | Structure (SMILES)
210 to 212 | CCn1nc(C(=O)O)c(=O)c2ccccc21
151 to 153 | CCOC(=O)c1sc(/N=C/N(C)C)c(C#N)c1C
170 to 172 | O=C(O)c1ccc(Br)cc1I
168 to 170 | Cc1ccccc1-c1cc(N)[nH]n1
79 to 81 | O=C(O)c1cc(OC(F)F)cc(OC(F)F)c1
105 to 107 | O=C(CCl)NN1C(=O)NC2(CCCCC2)C1=O
57 to 59 | Cc1ccc(S(=O)(=O)N2CC(Cc3cccc(F)c3)C2)cc1
78 to 80 | CCCCS(=O)(=O)N1CCCCC1C(=O)O (centres undefined)
139 to 141 | CC(C)(C)OC(=O)Nc1ccoc1
122 to 124 | Cc1cc(Oc2ccc(C(=O)O)cn2)ccc1C(C)C
68 to 70 | O=S(CCCl)c1cc(Cl)ccc1Cl (centres undefined)
151 to 153 | Cc1ccc(C(=O)Nc2ccccc2)cc1N
113 to 115 | CCCCC1(c2ccc(F)cc2)NC(=O)NC1=O (centres undefined)
199 to 201 | O=C(O)C1CCCCC1c1nc2cc(Cl)ccc2[nH]1 (centres undefined)
207 to 209 | O=C(Nc1ccsc1C(=O)O)c1ccoc1
152 to 156 | COc1ccc(NC(=O)C(Cl)c2ccccc2)cc1 (centres undefined)
115 to 117 | O=C(O)c1cccc(Oc2cccc(C(F)(F)F)c2)c1
194 to 196 | Cc1cnc(N)nc1
141 to 143 | Cn1ccc(N2CCC(N)C2=O)n1 (centres undefined)
106 to 108 | O=C(CCl)Nc1ccc(F)c(F)c1
187 to 189 | Fc1ccc(-c2cnc(C3CCNCC3)[nH]2)cc1F
125 to 127 | CSCCC(C(=O)O)N1C(=O)c2ccccc2C1=O (centres undefined)
194 to 196 | Cc1ccc(-n2c(N)nc3cc(Br)ccc32)cc1

melting point [°C] | Structure (SMILES)
97 to 99 | CS(=O)(=O)c1ccc(C2CO2)cc1 (centres undefined)
64 to 66 | Cc1cc(O)c(C=O)cc1C
274 to 276 | O=C(O)c1cnc2cc3c(cc2c1O)OCCO3
124 to 126 | O=C1OCc2c1cccc2S(=O)(=O)Cl
243 to 245 | FC(F)(F)Cn1c(S)nnc1-c1ccncc1
197 to 199 | Cc1cc(F)ccc1-n1ccc(C(=O)O)n1
104 to 106 | CC(C)(C)NC(=O)NCCCl
169 to 171 | NC(=O)[C@H]1CCCC[C@H]1C(=O)O
147 to 149 | O=C1CCNc2ccc(F)cc2N1
223 to 225 | CSc1nc(C)nc(C)c1C(=O)O
104 to 106 | O=C(O)C(Oc1ccc(Br)cc1F)c1ccccc1 (centres undefined)
131 to 133 | Cc1sc2ncn(N)c(=O)c2c1C
219 to 221 | CC(C)Cn1c(=O)n(C)c(=O)c2cc(C(=O)O)cnc21
100 to 102 | CS(=O)(=O)c1ccc(OCCBr)cc1
84 to 86 | O=C(O)C(Sc1ccc(F)cc1)c1ccccc1 (centres undefined)
146 to 148 | CC(=O)c1c[nH]c(C(=O)N2CCCC(CO)C2)c1 (centres undefined)
214 to 216 | O=C(O)C1CCCN(S(=O)(=O)c2cccnc2)C1 (centres undefined)
45 to 47 | O=[N+]([O-])c1cncc(Br)c1Cl
192 to 194 | Cc1noc(C)c1CSc1ccccc1C(=O)O
219 to 221 | Cc1ccc(-n2nc(C(=O)O)c3c2CCC3)c(F)c1
116 to 118 | COc1ccc(CC(=O)O)cc1S(=O)(=O)N1CCOCC1
64 to 66 | CC1CCCC1(N)C(N)=O (centres undefined)
169 to 171 | COc1ccccc1-n1c(C)nnc1SCC(=O)O

melting point [°C] | Structure (SMILES)
158 to 160 | Cc1ccc(Nc2nc(N)nc(CCl)n2)cc1
146 to 148 | Nc1ccc(OCc2cn3ccccc3n2)cc1
222 to 224 | O=C(O)c1cc(Cl)nc(N2CCOCC2)c1
117 to 119 | CCCc1cc(Cl)n2nc(C(=O)OC)nc2n1
97 to 99 | O=CCN1C(=O)COc2ccccc21
339 to 341 | O=C(O)c1cc(NCc2ccccc2)nc2ccccc12
99 to 101 | O=C1C(Br)CCN1c1ccccc1 (centres undefined)
144 to 146 | O=C(CN1C(=O)CCC1=O)c1ccccc1
169 to 171 | Cc1ccc(NC(=O)CCl)c(Br)c1
109 to 111 | Clc1cc(-c2nnco2)ccn1
188 to 190 | Cc1ccc(NC(=O)CC#N)cc1
121 to 123 | CC(Nc1ccc(N(C)C)cc1)c1ccccn1 (centres undefined)
167 to 169 | O=C(O)COc1ccc(Cl)cc1C1CCCCC1
46 to 48 | Cc1cc(Br)cc(C=O)c1OC(F)F
89 to 91 | O=C(O)C=C1CCC1
157 to 159 | CC(CO)NC(=O)C1=Cc2cc(Br)ccc2OC1 (centres undefined)
66 to 68 | Cc1cc(CC(=O)O)c(C)s1
136 to 138 | Nc1ccc(N2CCNC(=O)C2)nc1
130 to 132 | NCC(c1ccc(Cl)cc1Cl)c1c[nH]c2ccccc12 (centres undefined)
108 to 110 | O=S(=O)(Cl)Cc1cc(-c2ccc(F)cc2)no1
189 to 191 | NC(=S)C1(NC(=O)c2ccccc2)CCCC1
234 to 236 | O=Cc1cc(O)c(O)c(Cl)c1
130 to 132 | CCn1c(S)nnc1-c1ccc(C(C)(C)C)cc1

melting point [°C] | Structure (SMILES)
98 to 100 | COc1cc(C=O)ccc1OCC(=O)N1CCOCC1
232 to 234 | O=C(O)c1ccc(S(=O)(=O)C(F)F)cc1
232 to 234 | NNc1ncnc2c1oc1ccccc12
185 to 187 | O=C(O)C(=Cc1ccc(F)cc1)c1cccs1
138 to 140 | Cc1ccc(S(=O)(=O)NCCCC(=O)O)cc1
204 to 206 | CC1(c2ccc(F)cc2)NC(=O)NC1=O (centres undefined)
97 to 99 | O=C1NC2(CCCC2)C(=O)N1CCBr
144 to 146 | CCN1C(=O)C(=O)c2cc(Br)ccc21
69 to 71 | O=C(CCc1ccccc1)c1ccccc1
38 to 40 | CC1(C(=O)O)CCCS1 (centres undefined)
167 to 170 | Cc1cc(C)c(C(N)=O)c(S)n1
60 to 62 | CCc1ccc(C(=O)O)s1
97 to 99 | N#Cc1cccc(-n2ccnc2)n1
221 to 223 | Nc1c(NCC2CCCO2)c(=O)[nH]c(=O)n1Cc1ccccc1 (centres undefined)
46 to 48 | CCOc1ccc(C=CCN)cc1
100 to 102 | Cc1cc(N)nn1-c1ccc(Cl)cc1
169 to 171 | CC(C)(C)OC(=O)Nc1ccc(CC(=O)N2CCNCC2)cc1
99 to 101 | Cn1c(C2CC2)nc2cc(N)ccc21
72 to 74 | Nc1ccccc1CN1CCSCC1
185 to 187 | O=C(O)COc1ccc(C(=O)c2ccc(Cl)cc2)cc1
95 to 97 | OCc1csc(-c2ccccn2)n1
126 to 128 | COc1ccccc1Cn1cnc2cc(C)c(C)cc21
256 to 258 | Cc1cc(N)[nH]c(=O)c1

melting point [°C] | Structure (SMILES)
198 to 200 | CCOc1ccc(-c2nnc(SC(F)F)n2CCC(=O)O)cc1
203 to 205 | Nc1nc2cc3c(cc2s1)OCCO3
197 to 199 | CC(C)CNc1c(N)n(CC(C)C)c(=O)[nH]c1=O
136 to 138 | Cc1ccc(CN2CCSCC2)cc1N
154 to 156 | CC(=O)Oc1ccc(C)cc1C(=O)O
217 to 219 | CC(C)(C)OC(=O)N1CCC(NC(N)=O)CC1
209 to 211 | CS(=O)(=O)c1cc(Br)cc(C(=O)O)c1F
99 to 101 | O=C(O)C(O)c1cc(Cl)cc(Cl)c1 (centres undefined)
209 to 211 | COC(=O)c1c[nH][nH]c1=O
80 to 82 | CC(=O)c1cnc2ccnn2c1C
134 to 136 | Cn1cn[nH]c1=O
264 to 266 | Cc1oc(-c2ccc(Cl)c(Cl)c2)nc1C(=O)O
137 to 139 | CCc1nnc(-c2ccc(N)cc2)o1
205 to 207 | O=C(O)c1ccnc(N2CCCC2)n1
123 to 125 | FC(F)(F)Oc1ccc(-n2nnnc2S)cc1
179 to 181 | COc1ccc(C(=O)O)cc1-c1ccn(C)n1
193 to 195 | N#Cc1ccc(C(=O)NCC(=O)O)cc1
185 to 187 | NC(=O)c1ccc(C(F)(F)F)nc1
133 to 135 | CC(=O)c1sc(-c2ccc(O)cc2)nc1C
188 to 192 | O=C(CSc1nnc(S)s1)c1ccccc1
196 to 198 | CC(C)(c1ccccc1)c1nnc(N)o1
179 to 181 | O=C(O)c1cc(Oc2ccccc2)ccn1
136 to 138 | CCn1ncc(C(=O)O)c1C(F)(F)F

melting point [°C] | Structure (SMILES)
154 to 156 | CCN(CC)c1ccc(C(=O)O)cn1
187 to 189 | O=c1[nH]c(S)nn1-c1ccccc1
251 to 253 | Nc1cc(NC(=O)Cn2cccnc2=O)ccc1F
111 to 113 | ClCc1cc(Cl)cc2c1OC(c1ccccc1)OC2 (centres undefined)
165 to 167 | COc1nc(N)n[nH]1
201 to 203 | CCCCNc1c(N)n(CCC)c(=O)[nH]c1=O
54 to 56 | O=C(O)Cc1ccc2c(c1)OCCO2
119 to 121 | O=C(O)C1CCCCC1C(=O)N1CCCC1 (centres undefined)
194 to 196 | CC(C)(C)c1cc(N)n(-c2ncccn2)n1
171 to 173 | CSCCC(NC(=O)c1ccccc1Br)C(=O)O (centres undefined)
242 to 244 | COc1ccc(-n2c(S)nnc2-c2ccncc2)cc1
112 to 114 | CC(=O)c1cccc(NC(=O)CCl)c1
64 to 69 | COc1cc(C=O)ccc1OC(=O)c1cccs1
196 to 198 | COc1cccc(N2C(=O)NC(=O)C2=O)c1
98 to 100 | O=S(=O)(Cl)c1ccc2c(c1)COC2
139 to 141 | Cc1cc(C=O)c(C)[nH]1
79 to 81 | Nc1[nH]nc(-c2ccsc2)c1-c1ccc2c(c1)OCO2
51 to 53 | OCCOc1ccc(Br)cn1
147 to 153 | Cc1cc(C(C#N)c2ccc(Cl)cc2)c(Cl)cc1N (centres undefined)
91 to 93 | COC(=O)c1ccc2ccn(C)c2c1
81 to 83 | Sc1nnc(C2CCCCC2)o1

Structure (SMILES) | melting point [°C]
Nc1cccc(OCCF)c1 | 33 to 35
CC(C)N1CCCC(Br)C1=O (centres undefined) | 52 to 54
CCCn1c(C)c(C(=O)O)c2cc(OC)ccc21 | 171 to 173
CC(C)C(Br)C(=O)NC(C)(C)C (centres undefined) | 135 to 137
NCc1c[nH]nn1 | 211 to 213
O=C(CCl)NC(=O)NC1CC1 | 105 to 107
Cc1ccc2c(CCN)c[nH]c2c1 | 139 to 141
COc1ccc(NC2=NCCS2)cc1OC | 88 to 90
